For nine molecules, GI50 and TGI results are on record in PubChem BioAssay (NCI).

Some test systems named below: SK-MEL-28 melanoma; MCF7 breast; SNB-75 CNS; K-562 leukemia; NCI/ADR-RES ovarian; SK-MEL-5 melanoma; OVCAR-3 ovarian; SNB-19 CNS; SK-MEL-2 melanoma; CCRF-CEM leukemia.
What all share (assay): DTP human tumour cell line panel, 48 h

Several values for one entry are separate records, joined by “and”; a condition that tells them apart may be missing. Identical values can stand only once.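 Cells were grown in 96-well plates and exposed to each compound for 48 hours at five concentrations; endpoints were interpolated linearly between bracketing concentrations, or set to the highest concentration if not reached. GI50 = concentration required for 50% inhibition of growth. TGI is the concentration that stops growth completely.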

Turning to `CCOC(=O)C1=C(C)N(Cc2ccc(Cl)cc2Cl)C2(O)C=CC(=O)C3=C(O)c4ccccc4C(=O)C312` (centres undefined), the GI50 is 10.6 µM in the assay with SK-MEL-28 melanoma; 2.65 µM in the assay on MCF7 breast; 16.9 µM with SNB-75 CNS; 4.85 µM in the assay with K-562 leukemia; 0.888 µM in the assay on NCI/ADR-RES ovarian; 7.38 µM in the assay with SK-MEL-5 melanoma. The values for the GI50 in the assay on OVCAR-3 ovarian, in the assay with SNB-19 CNS and with SK-MEL-2 melanoma were 2.2 µM, 9.02 µM and 38.4 µM, respectively. Besides, the total growth inhibition concentration (TGI) is 40.1 µM in the assay with SK-MEL-28 melanoma; 40.1 µM with MCF7 breast; over 100 µM with SNB-75 CNS; over 100 µM with K-562 leukemia; 10.3 µM in the assay with NCI/ADR-RES ovarian; 23.3 µM in the assay on SK-MEL-5 melanoma. For the same molecule, the results for the TGI in the assay on OVCAR-3 ovarian, with SNB-19 CNS and in the assay on SK-MEL-2 melanoma were 6 µM, 78.7 µM and over 100 µM, respectively.

On to `CCc1ccc(C(=Nc2ccc(N(C)C(=O)CN3CCN(C)CC3)cc2)c2c(O)[nH]c3ccc(C(=O)OC)cc23)cc1`, for which the GI50 is 1.17 µM with SK-MEL-28 melanoma; 0.256 µM with MCF7 breast; 0.17 µM with SNB-75 CNS; 0.073 µM with K-562 leukemia; 0.256 µM in the assay with CCRF-CEM leukemia; 1.2 µM with SK-MEL-5 melanoma. In addition, the GI50 was 0.538 µM in the assay with OVCAR-3 ovarian, 0.775 µM with SNB-19 CNS and 1.23 µM in the assay with SK-MEL-2 melanoma. The TGI in the assay with SK-MEL-28 melanoma amounted to 2.42 µM; with MCF7 breast, 1.4 µM; with SNB-75 CNS it was 1.52 µM; in the assay with K-562 leukemia, 1.12 µM; with CCRF-CEM leukemia, 1.16 µM; in the assay on SK-MEL-5 melanoma, 2.47 µM. The TGI in the assay with OVCAR-3 ovarian is 1.96 µM; in the assay with SNB-19 CNS it was 2.09 µM; in the assay on SK-MEL-2 melanoma, 2.83 µM.

For `CC1(N)CCN(c2cnc(-c3cccc(Cl)c3Cl)c(N)n2)CC1`, the GI50 with SK-MEL-28 melanoma is 16.3 µM; in the assay on MCF7 breast it was 17.2 µM; in the assay with SNB-75 CNS, 7.24 µM; in the assay with NCI/ADR-RES ovarian, 17 µM; in the assay with CCRF-CEM leukemia, 23.2 µM; in the assay with SK-MEL-5 melanoma, 15.2 µM. Besides, the GI50 in the assay with OVCAR-3 ovarian was 35.1 µM; in the assay on SNB-19 CNS, 7.63 µM; in the assay on SK-MEL-2 melanoma, 20.1 µM. In addition, the TGI in the assay on SK-MEL-28 melanoma was 32.3 µM; in the assay with MCF7 breast it was 37.2 µM; in the assay with SNB-75 CNS, 27 µM; with NCI/ADR-RES ovarian, over 100 µM; with CCRF-CEM leukemia it was over 100 µM; in the assay with SK-MEL-5 melanoma it was 28.6 µM. For the same molecule, the TGI in the assay with OVCAR-3 ovarian was over 100 µM; in the assay with SNB-19 CNS, over 100 µM; in the assay with SK-MEL-2 melanoma, 46.4 µM.

With `CCCN(CCC)c1ccc(/C=N/NC(=O)c2cccnc2)c(OC)c1`, the GI50 is 26.6 µM in the assay on SK-MEL-28 melanoma; 19.1 µM with MCF7 breast; 23.7 µM in the assay with SNB-75 CNS; 22.2 µM in the assay with K-562 leukemia; 24.8 µM in the assay on NCI/ADR-RES ovarian; 25.5 µM with CCRF-CEM leukemia. For the same molecule, the GI50 with SK-MEL-5 melanoma is 14.3 µM; in the assay on OVCAR-3 ovarian it was 16.9 µM; in the assay on SNB-19 CNS, 41.6 µM. For the same molecule, the total growth inhibition concentration (TGI) in the assay on SK-MEL-28 melanoma was 98 µM; in the assay on MCF7 breast it was 89.1 µM; in the assay with SNB-75 CNS it was 80.4 µM; with K-562 leukemia, over 100 µM; in the assay with NCI/ADR-RES ovarian, over 100 µM; with CCRF-CEM leukemia it was over 100 µM. The TGI in the assay with SK-MEL-5 melanoma is 28.1 µM; with OVCAR-3 ovarian, 36.7 µM; in the assay on SNB-19 CNS, over 100 µM.

In the case of `CC(C(N)C(=O)NC(C(=O)O)C1OC(n2ccc(=O)[nH]c2=O)C(O)C1O)C(O)c1ccc(O)cn1` (centres undefined), the TGI with SK-MEL-28 melanoma, in the assay with MCF7 breast, in the assay with SNB-75 CNS, in the assay on NCI/ADR-RES ovarian, in the assay with CCRF-CEM leukemia and with SK-MEL-5 melanoma was over 100 µM in each case. Besides, the TGI in the assay with OVCAR-3 ovarian, in the assay on SNB-19 CNS and with SK-MEL-2 melanoma was over 100 µM throughout.

As for `COc1cc(C2=N/C(=C/c3cccs3)C(=O)O2)cc(OC)c1OC`, the total growth inhibition concentration (TGI) in the assay with SK-MEL-28 melanoma, with MCF7 breast, in the assay on SNB-75 CNS, in the assay with K-562 leukemia, in the assay on CCRF-CEM leukemia and with SK-MEL-5 melanoma was over 100 µM each time. The TGI with OVCAR-3 ovarian, in the assay with SNB-19 CNS and with SK-MEL-2 melanoma was over 100 µM throughout.

For `CC(C)=CCC/C(C)=C\CCC1(C)OC(=O)C2CC21` (centres undefined), the GI50 with SK-MEL-28 melanoma is > 100 µM and 37.5 µM; in the assay with MCF7 breast, 64.9 µM and 21.6 µM. Further, the TGI in the assay with SK-MEL-28 melanoma is over 100 µM; in the assay with MCF7 breast it was > 100 µM and 52.6 µM; with SNB-75 CNS, over 100 µM; in the assay on K-562 leukemia, 48.4 µM and 40.5 µM; in the assay on NCI/ADR-RES ovarian it was over 100 µM; with SK-MEL-5 melanoma, over 100 µM. Besides, the TGI with OVCAR-3 ovarian, in the assay with SNB-19 CNS and in the assay on SK-MEL-2 melanoma was over 100 µM throughout.

Turning to `Nc1ccc(-c2cccs2)cc1NC(=O)c1ccc(CCCC(=O)Nc2ccc(C3CC3N)cc2)cc1` (centres undefined), the GI50 in the assay with SNB-75 CNS is 1.65 µM; in the assay with NCI/ADR-RES ovarian it was over 100 µM; with SK-MEL-5 melanoma it was 1.91 µM; with OVCAR-3 ovarian, 1.48 µM; with SK-MEL-2 melanoma, 7.28 µM. The TGI was 4.27 µM in the assay with SNB-75 CNS; over 100 µM in the assay with NCI/ADR-RES ovarian; 6.23 µM in the assay with SK-MEL-5 melanoma; 3.14 µM in the assay with OVCAR-3 ovarian; over 100 µM with SK-MEL-2 melanoma.

Take `Cc1ccc(NC(=O)CSc2nnc3n(Cc4ccccc4)c(=O)c4c(C)c(C(N)=O)sc4n23)cc1`: the GI50 in the assay on MCF7 breast was over 100 µM; in the assay with SNB-75 CNS it was 5.72 µM; in the assay with K-562 leukemia, 42.5 µM; in the assay with NCI/ADR-RES ovarian, over 100 µM; in the assay on CCRF-CEM leukemia, 20.1 µM; in the assay with SK-MEL-5 melanoma it was over 100 µM. Besides, the GI50 in the assay on OVCAR-3 ovarian was over 100 µM; with SNB-19 CNS, 14.6 µM; in the assay on SK-MEL-2 melanoma, 16 µM. The TGI was over 100 µM in the assay on MCF7 breast; 23.8 µM with SNB-75 CNS; over 100 µM in the assay with K-562 leukemia; over 100 µM with NCI/ADR-RES ovarian; 46.1 µM with CCRF-CEM leukemia; over 100 µM in the assay with SK-MEL-5 melanoma. The concentration for total growth inhibition (TGI) in the assay with OVCAR-3 ovarian is over 100 µM; in the assay on SNB-19 CNS, over 100 µM; in the assay with SK-MEL-2 melanoma it was 43.3 µM.
